Measurements reported in patent publication US12303468B2, “Compositions comprising one or more (bio)-alkanediols with antioxidants” (Symrise AG, priority 2020, dated 2025).
Values joined by “and” are separate entries in the source; they are usually repeats but may differ in a detail not shown here. Equal entries are not always repeated. Values belong to the compound of their own block, whether it stands above or below them.

Experiments:
[1] = Oxipres test (induction period, product protection); assay type: physicochemical; conditions: for antioxidative boosting (prolonged induction time, less rancidity and reduced acid value), in words: alkanediol in combination with antioxidant (tocopherol) in sunflower oil
Experimental: To evaluate the influence of 1,2-alkanediols or of 2,3-alkanediols on the antioxidative capacity of antioxidants, two different tests were performed: • (1) Oxipres treatment to simulate product protection; and • (2) Evaluation of reactive oxygen species (ROS) for skin protection.
The following tests were performed with sunflower oil +/− antioxidant and +/− alkanediols. […] Treating it with heat and oxygen triggers and accelerates oxidation easily.
An Oxipres test was performed in order to evaluate the antioxidative capacity of different test samples as described below.
Test procedure: For the evaluation of the antioxidative capacity of the above-described samples, an Oxipres test was conducted. The Oxipres method is bases on oxygen consumption at high temperatures and pressures and allows the determination of oxidative resistance (shelf life) of e.g. oils. The test runs under elevated pressure and temperature, where the process is accelerated. In the Oxipres test the sample is placed inside a hermetically closed iron vessel that is subjected to high oxygen pressures and temperatures of 90 to 120° C. […] The consumption of oxygen results in a pressure drop in the vessel during the test. Higher decrease of pressure indicates more consumption of oxygen and higher oxidation of the test product. Oils with a high degree of unsaturation are most susceptible to autoxidation.
In the test, the antioxidants are oxidized preferentially before the oxidizable fat or oil is oxidized. Thus, the antioxidants protect the fat or oil against oxidation. After this there is a sudden and large consumption of oxygen and the fat becomes rancid. This can be defined by the induction period (IP) in hours. A lower IP correlates with a faster oxidation.
Equipment: The tests were performed with an Oxipres device ex Mikrolab. The instrument is a modification of the bomb method (ASTM D941), which is based on oxidation with oxygen.

[2] = system: reactive oxygen species (ROS) on ex vivo skin; experiment: DCF assay on ex vivo skin biopsies, aqueous/alcoholic (ethanolic) test samples; assay type: cell-based; conditions: only the vehicle and the alkanediol, no antioxidant
Experimental: A dichlorofluorescein test (DCF) assay was performed in order to determine the amount of reactive oxygen species (ROS) on ex vivo skin treated with different test samples in a lipophilic or an aqueous/alcoholic system as described below.
DCF assay—assay principle: Ex vivo skin was incubated with 2′,7′-dichlorodihydrofluorescein diacetate at 37° C., 5% CO2. After PBS washing, samples were exposed or not to cumene hydroperoxide. Immediately after exposure, ex vivo skin samples were frozen in liquid nitrogen and 5 μm cryostat sections were made and fixed with acetone to allow the visualisation of fluorescence generated by ROS in cells of the reconstructed skins. […] Green fluorescence was quantified in ex vivo skin using ImageJ software. The depth of immunostaining was measured as follows: green DCFH-DE positive cells were automatically detected using Histolab software and the distance between dermal epidermal junction and the deepest positive cells were measured in each condition. Means were compared using a student's test. […]
The image acquisition was performed by using Olympus BX51 microscope and Olympus DP70 camera. For each skin sample two skin sections have been taken and the related fluorescent images acquired and analyzed. Thus, for each test condition, 12 images have been acquired and analyzed (i.e. 12 data). The analysis of fluorescence has been performed within the dermis area. […]

[3] = system: IL-8 produced and secreted by HaCaT cells; experiment: Interleukin 8 (IL-8) ELISA; assay type: cell-based, human; conditions: IL 1-alpha stimulated
Experimental: Interleukin 8 (IL-8) is increased by various kinds of stress including UV and oxidant stress, which thereby cause the recruitment of inflammatory cells and induces further increase in oxidant stress mediators, making it a key parameter in localized inflammation.
An IL-8 ELISA (enzyme lined immunosorbance assay) was performed in order to determine IL-8 produced and secreted by cells from the cell supernatant utilizing antibodies detecting the IL-8.
Experimental procedure: HaCaT cells (spontaneously transformed aneuploid immortal keratinocyte cell line from adult human skin) were seeded in a black 96 well microplate with transparent bottom and incubated at 37° C. After 24 hours the supernatant is decanted and the test samples (100 μl/well) are added and incubated for 24 hours at 37° C. Then IL 1-alpha (1 ng/ml per 100 μl/well) was added as stimulant. Then the medium was changed (100 μl/well) and incubated at 37° C. After 4 h a 70 μl sample was recovered from the cell supernatant. Thereafter, an IL-8 ELISA is carried out with the cell supernatant sample.
The lower the IL-8 concentration the better the […] effect of the antioxidant of the sample.

[4] = system: reactive oxygen species (ROS) on monolayer cells; experiment: DCF assay on monolayer cells (2D); assay type: cell-based; conditions: 300 μM H2O2, Untreated = 100
Experimental: A dichlorofluorescein test (DCF) assay was performed in order to determine the amount of reactive oxygen species (ROS) on monolayer cells with different test samples as described below.
DCF assay—assay principle (2D): One procedure to quantify intracellular radicals in a cell model is by using the dichlorofluorescein (DCF) assay. […] By intracellular esterases and oxidation, the nonfluorescent H2DCFDA is converted to the highly fluorescent 2′,7′-dichlorofluorescein (DCF). The nonfluorescent fluorescein (2′,7′-dichlorofluorescein diacetate (DCFH-DA)) passes the cell membranes. In the cytoplasm, it is cleaved by intracellular esterases and cannot leave the cell in this form. The oxidation by intracellularly existing ROS (reactive oxygen species) modifies the molecule so that will become DCF and emits fluorescence. ROS stimulation is done by exposure to 300 μM H2O2 for 1 h.
The determination of the anti-oxidative capacity is performed in 96-well microplates from Nunc (Wiesbaden, Germany) and with the microplate reader “Spark” from Tecan (Crailsheim, Germany). Cells are seeded in a black 96 well microplate with transparent bottom and incubated at 37° C. After 24 h the supernatant is decanted and fresh media with 0.1% FBS is added. Further 24 hours later the supernatant is decanted again and the test samples are added and incubated for 24 h. As a positive control Trolox is always co-tested. 300 μM H2O2 is used as ROS source (1 h exposure) The emitted fluorescence is measured from bottom of well at EX/EM 485/528 nm.
The antioxidative capacity is expressed as relative reduction of the stimulated control, which can be determined by rule of proportion in combination with the control.

[5] = Solubility of alkanediols in water; assay type: physicochemical; conditions: visual assessment at ambient temperature after 24 h storage at 5° C.
Excerpt: The water solubility of a substance is the saturation mass concentration of the substance in water at a given temperature. The determination of the solubility in water relates to essentially pure substances which are stable in water and not volatile. The determination of the water solubility of the alkanediols is further described in the following Example 7.
For the determination of the maximum water solubility of an alkanediol. water and different concentrations of the respective alkanediol were blended by stirring. […] The determination of whether the alkanediol has dissolved in water is based entirely on visual observation.

[6] = in combination with Ascorbyl Palmitate in sunflower oil
[7] = in combination with Hydroxyacetophenone in sunflower oil

SMILES: CCCCCCCCC(O)CO (stereo not shown) [1,2-decanediol]
antioxidative boosting (prolonged induction time, less rancidity and reduced acid value), in words [1]: distinguished efficacy for antioxidative boosting

Maximum solubility in water [5]: 2.5 % by weight
induction period, in words [1, 6]: remarkably prolonged induction periods
induction period, in words [1, 7]: remarkably prolonged induction periods
SMILES: CCCCCC(O)CO (stereo not shown) [1,2-heptanediol]
antioxidative efficacy, in words [2]: do not have an antioxidative efficacy
IL-8 concentration ([3]; 500 μM): 959.8 pg/mL and 959.85 pg/mL
Mean, ROS concentration (%) ([4]; 500 μM): 112%
antioxidative boosting (prolonged induction time, less rancidity and reduced acid value), in words [1]: distinguished efficacy for antioxidative boosting

Maximum solubility in water [5]: 0.1 % by weight
SMILES: CCCCCCCC(O)CO (stereo not shown) [1,2-nonediol, 1,2-nonanediol]
antioxidative boosting (prolonged induction time, less rancidity and reduced acid value), in words [1]: distinguished efficacy for antioxidative boosting

Maximum solubility in water [5]: 3.6 % by weight
induction period, in words [1, 6]: remarkably prolonged induction periods
induction period, in words [1, 7]: remarkably prolonged induction periods
SMILES: CCCCC(O)C(C)O (stereo not shown) [2,3-heptanediol]
antioxidative efficacy, in words [2]: do not have an antioxidative efficacy

induction period, in words ([1]; sunflower oil, tocopherol series (samples 1-43), versus comparative samples of the series): prolonged induction periods
SMILES: CCCC(O)C(C)O (stereo not shown) [2,3-hexanediol]

Maximum solubility in water [5]: 0.3 % by weight
SMILES: CCCCCCC(O)C(C)O (stereo not shown) [2,3-nonanediol]

Maximum solubility in water [5]: 1.5 % by weight
SMILES: CCCCCC(O)C(C)O (stereo not shown) [2,3-octanediol]
Mean, ROS concentration (%) ([4]; 500 μM): 98%
antioxidative boosting (prolonged induction time, less rancidity and reduced acid value), in words [1]: distinguished efficacy for antioxidative boosting

SMILES: NCCC(=O)N[C@@H](Cc1cnc[nH]1)C(=O)O [Carnosine]
Mean, ROS concentration (%) ([4]; 10 mM): 96%

Maximum solubility in water [5]: 50 % by weight
SMILES: CCCCC(O)CO (stereo not shown) [Hydrolite ® 6]

Maximum solubility in water [5]: 0.5 % by weight
SMILES: CCCCCCC(O)CO (stereo not shown) [Hydrolite ® 8]

SMILES: CC1=C(/C=C/C(C)=C/C=C/C(C)=C/C(=O)OCC(=O)C(C)(C)C)C(C)(C)CCC1 [Hydroxypinacolone Retinoate]
Mean, ROS concentration (%) ([4]; 5 μM + 500 μM): 53%

SMILES: CC1=C(/C=C/C(C)=C/C=C/C(C)=C/CO)C(C)(C)CCC1 [all trans-Retinol, reference compound]
IL-8 concentration ([3]; 50 μM): 670.8 pg/mL and 670.84 pg/mL
Mean, ROS concentration (%) ([4]; 50 μM): 100%

SMILES: Cc1c(C)c2c(c(C)c1O)CC[C@@](C)(CCC[C@H](C)CCC[C@H](C)CCCC(C)C)O2 [alpha-Tocopherol]
Mean, ROS concentration (%) ([4]; 50 μM): 45%
Mean, ROS concentration (%) ([4]; 100 μM): 58%

SMILES: N=C(N)NCCC[C@H](NC(=O)C[C@H](N)C(=O)O)C(=O)O [beta-aspartyl arginine]
Mean, ROS concentration (%) ([4]; 10000 μM): 103%
